The values that follow come from patent US8673816B2, “Surfactants in agrochemical formulations” (Croda, Inc., priority 2009, dated 2014).

In this assay the test system is oil seed rape plants (Brassica napus). In words: Greenhouse trial of surfactants as adjuvants for Glyphosate. Format: in vivo. The conditions noted are these: for % control: fresh weight vs untreated controls. The source says: A greenhouse trial was run to evaluate the effectiveness of the surfactants of the invention as adjuvants for Glyphosate in controlling the growth of (non-roundup ready) oil seed rape plants (Brassica napus). The trial used surfactant of the invention (SE1) and control adjuvant (FAE) at 3 rates, with 3 rates of glyphosate application, and controls including 3 glyphosate rates without surfactant, all grown in randomised blocks. 10 replications were used for each application, with 1 pot (7×7×8 cm) per plot and at least 4 plants per pot, in Levington M2 medium. The greenhouse conditions of temperature and humidity were recorded and watering was carried out by capillary matting. Additional lighting was provided over natural daylight. The glyphosate treatments were carried out using a pre-calibrated Mardrive greenhouse cabinet sprayer at a volume rate of about 200 I.ha^−1. […]
The type and application rate (Rate in g.ha^−1) of nominally 100% adjuvant, the application rate (Rate in g.ha^−1 active) of glyphosate, the glyphosate to adjuvant weight ratio (G:A) applied to the test plants and the visual assessment (%), and the % control are set out in Table AEA1 below.

The mark [1] stands for this setting: 28 d, glyphosate 125 g.ha^−1, no adjuvant.
The mark [2] stands for this setting: 28 d, glyphosate 250 g.ha^−1, no adjuvant.
Where [3] appears, read: 28 d, glyphosate 500 g.ha^−1, no adjuvant.

Turning to `O=C(O)CNCP(=O)(O)O` [Glyphosate, N-phosphonomethyl glycine], the “% damage” value amounted to 0% (15 d, glyphosate 125 g.ha^−1, no adjuvant); 1.5% (15 d, glyphosate 250 g.ha^−1, no adjuvant); 11% (15 d, glyphosate 500 g.ha^−1, no adjuvant); 5% (21 d, glyphosate 125 g.ha^−1, no adjuvant); 5% (21 d, glyphosate 250 g.ha^−1, no adjuvant); 33% (21 d, glyphosate 500 g.ha^−1, no adjuvant). Besides, the “% damage” value by setting is: under setting [1], 0%; under setting [2], 0%; under setting [3], 52%. Moreover, the “% control” value by setting is: under setting [1], 0.2%; under setting [2], −6.4%; under setting [3], 49.5%.
